Source: ChEMBL document CHEMBL3045585, “Combinatorial approach: identification of potential antifungals from triazole minilibraries” (2011)
≈ marks a conversion by molar mass, not a printed value.

Assays:
Assay type in all cases: functional
Penicillium chrysogenum = assay: Antifungal activity against Penicillium chrysogenum NCIM 725 by serial dilution method
Aspergillus flavus = assay: Antifungal activity against Aspergillus flavus NCIM 536 by serial dilution method
Fusarium oxysporum = assay: Antifungal activity against Fusarium oxysporum NCIM 1008 by serial dilution method
Aspergillus niger = assay: Antifungal activity against Aspergillus niger NCIM 945 by serial dilution method

| MIC (Penicillium chrysogenum) [µg/mL] | MIC (Aspergillus flavus) [µg/mL] | MIC (Fusarium oxysporum) [µg/mL] | MIC (Aspergillus niger) [µg/mL] | Compound |
| --- | --- | --- | --- | --- |
| 125 (≈ 311 µM) | 250 (≈ 623 µM) | 250 (≈ 623 µM) | 31 (≈ 77.2 µM) | COc1ccc(/C=N/n2c(SCc3ccccc3)nnc2-c2ccncc2)cc1 |
| 31 (≈ 73.8 µM) | 125 (≈ 298 µM) | 62 (≈ 148 µM) | 125 (≈ 298 µM) | Nc1ccccc1-c1nnc(SCc2ccccc2)n1/N=C/c1ccc(Cl)cc1 |
| 250 (≈ 583 µM) | 125 (≈ 292 µM) | 32 (≈ 74.7 µM) | 62 (≈ 145 µM) | CN(C)c1ccc(/C=N/n2c(SCc3ccccc3)nnc2-c2ccccc2N)cc1 |
| 125 (≈ 301 µM) | 32 (≈ 77 µM) | 250 (≈ 602 µM) | 62 (≈ 149 µM) | COc1ccc(/C=N/n2c(SCc3ccccc3)nnc2-c2ccccc2N)cc1 |
